Experimental data reported in US4826814A, “Tripeptide derivatives” (Dainippon Pharmaceutical Co., Ltd., priority 1986, dated 1989).
Starred links: 1 amine or outer side, 2 acyl side, 3 side chain; linkers in the order of their positions; H or OH if unused. Non-standard residues stand in square brackets, D forms with d. Residues, ends and D or L forms follow the SMILES beside them. *: point of attachment. d(γGlu) = O=C(O)[C@@H](CCC(=O)[*:2])N[*:1]; Oic = O=C(O)[C@@H]1C[C@@H]2CCCC[C@@H]2N1; Orn = NCCC[C@H](N)C(=O)O; Cbz = O=C(OCc1ccccc1)*; Bz = O=C(c1ccccc1)*

The compounds below were run against T1, ACE preparation (rabbit lung) (Oryctolagus cuniculus, UniProt P12822) (assay: In vitro ACE inhibitory activity (hippuryl-L-histidyl-L-leucine substrate)). Conditions: 37° C., 30 minutes, pH 8.3.
T1 construct: an ACE preparation (rabbit lung); from tissue; host or cells: rabbit lung
T1 sequence (P12822 34-1310): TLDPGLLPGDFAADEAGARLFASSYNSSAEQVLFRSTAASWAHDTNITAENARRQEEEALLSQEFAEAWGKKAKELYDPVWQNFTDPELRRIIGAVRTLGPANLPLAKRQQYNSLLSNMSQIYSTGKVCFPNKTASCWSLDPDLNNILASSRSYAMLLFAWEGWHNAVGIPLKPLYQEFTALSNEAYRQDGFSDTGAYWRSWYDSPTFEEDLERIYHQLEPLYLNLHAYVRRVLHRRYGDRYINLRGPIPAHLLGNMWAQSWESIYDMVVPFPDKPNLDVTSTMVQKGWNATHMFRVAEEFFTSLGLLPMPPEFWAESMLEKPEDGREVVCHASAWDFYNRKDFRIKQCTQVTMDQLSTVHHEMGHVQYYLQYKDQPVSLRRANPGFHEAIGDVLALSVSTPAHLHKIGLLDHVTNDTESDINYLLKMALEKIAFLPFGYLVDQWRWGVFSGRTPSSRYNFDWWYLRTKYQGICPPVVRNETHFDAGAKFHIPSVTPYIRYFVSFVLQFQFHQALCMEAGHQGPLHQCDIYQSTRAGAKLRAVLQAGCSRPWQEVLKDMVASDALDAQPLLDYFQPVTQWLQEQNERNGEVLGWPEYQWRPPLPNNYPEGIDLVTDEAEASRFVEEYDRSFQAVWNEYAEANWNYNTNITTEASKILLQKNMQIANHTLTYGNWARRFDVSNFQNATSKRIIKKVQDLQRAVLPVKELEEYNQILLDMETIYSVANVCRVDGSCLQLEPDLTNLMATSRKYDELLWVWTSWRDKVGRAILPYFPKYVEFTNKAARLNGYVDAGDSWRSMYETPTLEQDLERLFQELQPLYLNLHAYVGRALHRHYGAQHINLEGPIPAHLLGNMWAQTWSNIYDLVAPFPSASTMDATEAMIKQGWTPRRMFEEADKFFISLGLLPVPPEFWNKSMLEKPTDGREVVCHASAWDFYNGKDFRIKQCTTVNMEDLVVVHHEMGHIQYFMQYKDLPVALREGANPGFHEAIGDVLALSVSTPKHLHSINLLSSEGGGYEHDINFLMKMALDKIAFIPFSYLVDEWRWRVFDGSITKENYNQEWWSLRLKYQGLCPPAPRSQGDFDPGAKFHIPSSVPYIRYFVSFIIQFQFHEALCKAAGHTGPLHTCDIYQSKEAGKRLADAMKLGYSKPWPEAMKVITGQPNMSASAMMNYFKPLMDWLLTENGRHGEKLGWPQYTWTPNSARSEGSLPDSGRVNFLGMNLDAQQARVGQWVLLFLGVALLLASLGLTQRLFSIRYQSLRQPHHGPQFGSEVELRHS
Type: biochemical
Protocol: The assay medium contained an ACE preparation (rabbit lung), synthetic substrate (hippuryl-L-histidyl-L-leucine 5 mM), NaCl (300 mM) and phosphate buffer (100 mM, pH 8.3). It was mixed to a final volume of 0.300 ml and incubated at 37° C. for 30 minutes in the presence or absence of test compounds. After the reaction was terminated by adding 300 μl of 1N HCl, hippuric acid formed was extracted with 2 volume of ethyl acetate. After ethyl acetate was evaporated and distilled water was added, the hippuric acid was determined from its absorbance at 228 nm by spectrophotometer (Hitachi 100-41).
The degree of ACE inhibition was calculated from activities with and without test compounds. The IC50 value (molar concentration required for the 50% inhibition of ACE activity) was obtained from a dose-inhibition curve.

Structure (SMILES) | IC50 [nM]
NCCCC[C@H](NC(=O)OCc1ccccc1)C(=O)N[C@H](CCC(=O)N1c2ccccc2C[C@H]1C(=O)O)C(=O)O [Example 1, 1-(N^2 -Benzyloxycarbonyl-L-lysyl-gamma-D-glutamyl)indoline-2(S)-carboxylic acid] | 5.6
NCCCC[C@H](NC(=O)OCCc1ccccc1)C(=O)N[C@H](CCC(=O)N1c2ccccc2C[C@H]1C(=O)O)C(=O)O [Example 3, 1-(N^2 -Phenethyloxycarbonyl-L-lysyl-gamma-D-glutamyl)indoline-2(S)-carboxylic acid] | 13
NCCCC[C@H](NC(=O)OC1CCCCC1)C(=O)N[C@H](CCC(=O)N1c2ccccc2C[C@H]1C(=O)O)C(=O)O [Example 4, 1-(N^2 -Cyclohexyloxycarbonyl-L-lysyl-gamma-D-glutamyl)indoline-2(S)-carboxylic acid] | 8.4
NCCCC[C@H](NC(=O)c1ccco1)C(=O)N[C@H](CCC(=O)N1c2ccccc2C[C@H]1C(=O)O)C(=O)O [Example 8, 1-[N^2-(2-Furoyl)-L-lysyl-gamma-D-glutamyl]indoline-2(S)-carboxylic acid] | 23
NCCCC[C@H](NC(=O)[C@@H]1CCCN1)C(=O)N[C@H](CCC(=O)N1c2ccccc2C[C@H]1C(=O)O)C(=O)O [Example 9, 1-(L-prolyl-L-lysyl-gamma-D-glutamyl)indoline-2(S)-carboxylic acid] | 36
NCCCC[C@H](NC(=O)C=Cc1c[nH]cn1)C(=O)N[C@H](CCC(=O)N1c2ccccc2C[C@H]1C(=O)O)C(=O)O [Example 10, 1-{N^2-[3-(4-Imidazolyl)-propenoyl]-L-lysyl-gamma-D-glutamyl}indoline-2(S)-carboxylic acid] | 95
NCCC[C@H](NC(=O)OCc1ccccc1)C(=O)N[C@H](CCC(=O)N1[C@H](C(=O)O)C[C@@H]2CCCC[C@@H]21)C(=O)O [Example 14, (2S,3aS,7aS)-1-(N^2 -Benzyloxycarbonyl-L-ornithinyl-gamma-D-glutamyl)octahydro-1H-indole-2-carboxylic acid] (Cbz-[Orn]-[d(γGlu)]-[Oic]-OH) | 4.9
NCCCC[C@H](NC(=O)OCC1CCCCC1)C(=O)N[C@H](CCC(=O)N1c2ccccc2C[C@H]1C(=O)O)C(=O)O [Example 16, 1-(N^2 -Cyclohexylmethoxycarbonyl-L-lysyl-gamma-D-glutamyl)indoline-2(S)-carboxylic acid] | 13
NCCCC[C@H](NC(=O)[C@H]1CCCN1)C(=O)N[C@H](CCC(=O)N1c2ccccc2C[C@H]1C(=O)O)C(=O)O [Example 17, 1-(D-Prolyl-L-lysyl-gamma-D-glutamyl)indoline-2(S)-carboxylic acid] | 21
NCCCC[C@H](NC(=O)c1ccccn1)C(=O)N[C@H](CCC(=O)N1[C@H](C(=O)O)C[C@@H]2CCCC[C@@H]21)C(=O)O [Example 20, (2S,3aS,7aS)-1-[N^2-(Pyridine-2-carbonyl)-L-lysyl-gamma-D-glutamyl]octahydro-1H-indole-2-carboxylic acid] | 6.8
NCCCC[C@H](NC(=O)OCCc1ccccc1)C(=O)N[C@H](CCC(=O)N1[C@H](C(=O)O)C[C@@H]2CCCC[C@@H]21)C(=O)O [Example 26, (2S,3aS,7aS)-1-[N^2 -Phenethyloxycarbonyl-L-lysyl-gamma-D-glutamyl]octahydro-1H-indole-2-carboxylic acid] | 4.6
NCCCC[C@H](NC(=O)c1ccccc1)C(=O)N[C@H](CCC(=O)N1[C@H](C(=O)O)C[C@@H]2CCCC[C@@H]21)C(=O)O [Example 27, (2S,3aS,7aS)-1-(N^2 -Benzoyl-L-lysyl-gamma-D-glutamyl)octahydro-1H-indole-2-carboxylic acid] (Bz-Lys-[d(γGlu)]-[Oic]-OH) | 5.4
COc1ccc(CCOC(=O)N[C@@H](CCCCN)C(=O)N[C@H](CCC(=O)N2c3ccccc3C[C@H]2C(=O)O)C(=O)O)cc1 [Example 28, 1-[N^2-(4-Methoxyphenylethoxycarbonyl)-L-lysyl-gamma-D-glutamyl]indoline-2(S)-carboxylic acid] | 11
NCCCC[C@H](NC(=O)OC1CCCCC1)C(=O)N[C@H](CCC(=O)N1[C@H](C(=O)O)C[C@@H]2CCCC[C@@H]21)C(=O)O [Example 31, (2S,3aS,7aS)-1-(N^2 -Cyclohexyloxycarbonyl-L-lysyl-gamma-D-glutamyl)octahydro-1H-indole-2-carboxylic acid] | 5
NCCCC[C@H](NC(=O)OC1CCC1)C(=O)N[C@H](CCC(=O)N1[C@H](C(=O)O)C[C@@H]2CCCC[C@@H]21)C(=O)O [Example 32, (2S,3aS,7aS)-1-[N^2-(Cyclobutyloxycarbonyl)-L-lysyl-gamma-D-glutamyl]octahydro-1H-indole-2-carboxylic acid] | 4.6
NCCCC[C@H](NC(=O)OC1CCC1)C(=O)N[C@H](CCC(=O)N1c2ccccc2C[C@H]1C(=O)O)C(=O)O [Example 33, 1-(N^2 -Cyclobutyloxycarbonyl-L-lysyl-gamma-D-glutamyl)indoline-2(S)-carboxylic acid] | 14
NCCCC[C@H](NC(=O)OCCC1CCCCC1)C(=O)N[C@H](CCC(=O)N1c2ccccc2C[C@H]1C(=O)O)C(=O)O [Example 34, 1-(N^2 -Cyclohexylethoxycarbonyl-L-lysyl-gamma-D-glutamyl)indoline-2(S)-carboxylic acid] | 8
NCCCC[C@H](NC(=O)c1cccnc1)C(=O)N[C@H](CCC(=O)N1c2ccccc2C[C@H]1C(=O)O)C(=O)O [Example 35, 1-(N^2 -Nicotinoyl-L-lysyl-gamma-D-glutamyl)indoline-2(S)-carboxylic acid] | 11
NCCCC[C@H](NC(=O)C1CCC1)C(=O)N[C@H](CCC(=O)N1c2ccccc2C[C@H]1C(=O)O)C(=O)O [Example 36, 1-(N^2 -Cyclobutanecarbonyl-L-lysyl-gamma-D-glutamyl)-indoline-2(S)-carboxylic acid] | 22
NCCCC[C@H](NC(=O)OC1CCCC1)C(=O)N[C@H](CCC(=O)N1c2ccccc2C[C@H]1C(=O)O)C(=O)O [Example 37, 1-(N^2 -Cyclopentyloxycarbonyl-L-lysyl-gamma-D-glutamyl)indoline-2(S)-carboxylic acid] | 5.1
NCCCC[C@H](NC(=O)c1ccccc1)C(=O)N[C@H](CCC(=O)N1c2ccccc2C[C@H]1C(=O)O)C(=O)O [Example 39, 1-(N^2 -Benzoyl-L-lysyl-gamma-D-glutamyl)indoline-2(S)-carboxylic acid] | 11
NCCCC[C@H](NC(=O)c1cccs1)C(=O)N[C@H](CCC(=O)N1[C@H](C(=O)O)C[C@@H]2CCCC[C@@H]21)C(=O)O [Example 52, (2S,3aS,7aS)-1-[N^2-(2-Thiophenecarbonyl)-L-lysyl-gamma-D-glutamyl]octahydro-1H-indole-2-carboxylic acid] | 4.5
NCCCC[C@H](NC(=O)c1cnc2ccccc2c1)C(=O)N[C@H](CCC(=O)N1[C@H](C(=O)O)C[C@@H]2CCCC[C@@H]21)C(=O)O [Example 53, (2S,3aS,7aS)-1-[N^2-(3-Quinolinecarbonyl)-L-lysyl-gamma-D-glutamyl]octahydro-1H-indole-2-carboxylic acid] | 4.6
NCCCC[C@H](NC(=O)c1cccnc1Cl)C(=O)N[C@H](CCC(=O)N1[C@H](C(=O)O)C[C@@H]2CCCC[C@@H]21)C(=O)O [Example 54, (2S,3aS,7aS)-1-[N^2-(2-Chloronicotinoyl)-L-lysyl-gamma-D-glutamyl]octahydro-1H-indole-2-carboxylic acid] | 5.9
